Measurements taken from patent US20110269790A1, “NOVEL THIENOPYRIDINES AS PHARMACOLOGICALLY ACTIVE AGENTS” (priority 2009, published 2011).

Experiments:
rats = test: Collagen induced arthritis; assay type: in vivo, rat; conditions: collagen induced study; BN compounds 100 mg/kg, Indomethacin 2.5 mg/kg
Excerpt: Group I—Normal Control; Group II—Arthritic control; Group III—Arthritic rats administered with Synthetic compound BN-4; Group IV—arthritic rats administered with compound BN-14; Group V—arthritic rats administered with BN-16; Group VI—arthritic rats administered with standard drug indomethacin. […] The test and indomethacin doses continued up to 21 days in FCA induced model and 24 days in collagen induced model. […] Before sacrificing the animals, blood was collected and used for estimation of total leukocyte count, TNF-α and IL-1β. […] In collagen induced study the total WBC count was analyzed by using cell counter and count as follows; […]

Wistar rats [1] = test: Dextran induced rat paw edema model; assay type: in vivo; conditions: 3 hrs after Dextran
Protocol: Anti-inflammatory activity of test compounds was evaluated in Wistar rats employing method of Winter et al (1963) and Diwan et al (1989). Over night fasted rats were grouped into different test groups and standard group consisting 6 animals in each group. Test compounds were administered orally one hour before dextran challenge as gum acacia suspension. Animals in the standard group received Indomethacin at dose of 10 mg/kg. After one hour dextran was injected into the right hind paw by sub plantar route. A zero hour paw volume was measured for the rats using digital plethysmometer (Ugo Basile, Italy) before the administration of Dextran for all groups. Paw volumes were again measured 3 hrs after the challenge of Dextran. The percent inhibition of paw volume for each rat in treated groups was calculated by comparing with mean paw volume of control group and expressed as mean (±SE) percent inhibition of paw volume for each test group.

IL-1β = IL-1β assay in murine macrophage cell line; assay type: cell-based, mouse; conditions: 50, 25, 12.5 μg/ml with LPS
Protocol: Cell Culture and Treatment: The RAW 264.7 (mouse macrophages, national center for cellular sciences) cells were grown in plastic T-25 culture flask in Dulbeccos modified eagles medium (DMEM) without phenol red supplemented with 10% heat activated serum (heating at 57° C. for 30 minutes, 100 μg per ml penicillin, 200 μg per ml streptomycin, 2 mmol L-glutamine, 1% antibiotic/Anti mycotic solution (GIBCO/SRL) under 5% co2 with 85% relative humidity at 37° C. After 2-3 days cells were removed from the culture flask by tripsinizing the cells with Trypsin EDTA solution. Cell count and viability was performed using a standard Trypan blue dye exclusion method. The cell concentration was adjusted to 1×10^5 cells per ml in each well with the same media in the 12 well plates. After 24 hrs incubation the media was removed from each well replaced with a fresh one containing different concentrations (50 μg, 25 μg, 12.5 μg) of the synthetic compounds BN-4, BN-14 and BN-16 along with 10 μg/ml LPS, where as normal control (PBS) and positive controls (Dexa, Roli) LPS (10 μg/ml), were added. 200 μl of media from each well was collected at 6 hrs for the estimation of TNF-α and after 24 hrs for Nitric Oxide respectively. The adherent cells, which remained after removing the media was subjected to […] for determining the cytotoxicity of compounds at selected concentrations
To determine the mechanism of action all test compounds were screened for invitro anti-inflammatory methods, which include TNF-a and IL-1b and Nitric Oxide. […] TNF-a is a pleiotropic cytokine, which plays a critical role in both acute and chronic inflammation (Holtzmann et al., 2002). Several inflammagens have the ability of inducing the synthesis of TNF-a. Formation of a number of small molecular mediators of inflammation is linked with TNF-a and contributes to the range of mediators that critically control inflammation. TNF-a facilitates inflammatory cell infiltration by promoting the adhesion of neutrophils and lymphocytes to endothelial cells (Dinarello, 1997).

Wistar rats [2] = test: Freund's complete adjuvant (FCA) induced arthritis; assay type: in vivo, rat; conditions: BN compounds 100 mg/kg; for % Of inhibition, 5th Day / % Of inhibition, 12th Day / % Of inhibition, 18th Day / Body weight index, 21st DAY / Paw volume, 5th Day / Paw volume, 12th Day / Paw volume, 18th Day / Paw volume, 21st Day: indomethacin 2.5 mg/kg daily; for Body weight index, 21st DAY / Body weight index, 1st DAY: FCA study; for Paw volume, 5th Day / Paw volume, 12th Day / Paw volume, 18th Day / Paw volume, 21st Day: in mL (unit assumed); for Body weight index, 1st DAY: indomethacin 2.5 mg/kg; for Total WBC count: termination day, FCA model, Indomethacin 2.5 mg/kg
Protocol: Induction of Arthritis: Arthritis was induced by injecting Freund's complete adjuvant (FCA. Required quantity of FCA was weighed and suspension made with paraffin oil (DIFCO Laboratories) and administered at dose of 0.5 mg/rat in subplantar region of the right hind paw. After 7 days, a booster injection was given to all animals to hind paws.
Experimental Design Animals were divided into 6 groups of 6 rats each and were designated as:
Group I—Normal Control; Group II—Arthritic control; Group III—Arthritic rats administered with Synthetic compound BN-4; Group IV—arthritic rats administered with compound BN-14; Group V—arthritic rats administered with BN-16; Group VI—arthritic rats administered with standard drug indomethacin. Administration of test compounds and indomethacin started on the same day of adjuvant injection at the dose of 100 and 2.5 mg/kg respectively. The test and indomethacin doses continued up to 21 days in FCA induced model and 24 days in collagen induced model. During the study period the paw volumes were measured on 5th, 12th, 18th and 21 st days and the weight of the animals was also recorded at different time intervals. At each time point the percentage of inhibition of paw volume was calculated with reference to mean paw volume of control group In FCA model, animals were sacrificed on 21st day by cervical dislocation. Before sacrificing the animals, blood was collected and used for estimation of total leukocyte count, TNF-α and IL-1β.
Clinical Assessment of Adjuvant arthritis: Rats were examined for visual appearance of arthritis and the lesion of erythema and inflammation of periarticular tissues on 14th day, 18th day and on 21st day. Arthritis scoring scale as follows:
2=Mild swelling and erythema of the limb 3=Gross swelling and erythema of the limb 4=Gross deformity and inability to use the limb
The arthritis score of each rat was the sum of the scores of both hind limbs and maximum score was being 8 for each rat.

Wistar rats [3] = test: Freund's complete adjuvant (FCA) induced arthritis; assay type: in vivo, rat; conditions: 17th day and 21st day, 100 mg/kg, vs arthritic control

| Compound | Total WBC count (rats) | % Inhibition (Wistar rats [1]; 50 mg/kg oral) | Percentage Swelling (50 mg/kg) (Wistar rats [1]; 50 mg/kg oral) | % Inhibition (Wistar rats [1]; 100 mg/kg oral) | Percentage Swelling (100 mg/kg) (Wistar rats [1]; 100 mg/kg oral) | % Inhibition (Wistar rats [1]; 200 mg/kg oral) | Percentage Swelling (200 mg/kg) (Wistar rats [1]; 200 mg/kg oral) | Production of IL-1β from murine macrophage cell line (IL-1β) | % Of inhibition, 5th Day (Wistar rats [2]) | % Of inhibition, 12th Day (Wistar rats [2]) | % Of inhibition, 18th Day (Wistar rats [2]) | Body weight index, 21st DAY (Wistar rats [2]) | Paw volume, 5th Day (Wistar rats [2]) | Paw volume, 12th Day (Wistar rats [2]) | Paw volume, 18th Day (Wistar rats [2]) | Paw volume, 21st Day (Wistar rats [2]) | Body weight index, 1st DAY (Wistar rats [2]) | Total WBC count (Wistar rats [2]) | Arthritic scoring (Wistar rats [3]) |
| --- | --- | --- | --- | --- | --- | --- | --- | --- | --- | --- | --- | --- | --- | --- | --- | --- | --- | --- | --- |
| Cc1sc2nc3c(c(N)c2c1C)CCCCC3 [BN-4, 2,3-dimethyl-6,7,8,9-tetrahydro-5H-cyclohepta[b]thieno[3,2-e]pyridin-4-amine] | 13.57±0.63 | 12.17 ± 1.14% | 69.96 ± 4.06 % | 13.57 ± 1.71% | 50.01 ± 1.09 % | 32.71 ± 4.45% | 38.52 ± 2.60 % | inhibitory effect | 36.41 ± 3.84 % | 42.88 ± 8.45 % | 40.71 ± 7.59 % | 199.87 ± 4.76 | 1.51 ± 0.09 | 1.42 ± 0.21 | 1.55 ± 0.20 | 1.63 ± 0.12 | 155.15 ± 3.1 | 18.53±1.36 | significantly reduced |
| Nc1c2c(nc3sc4c(c13)CCC4)CCCC2 [BN-14, 2,3,6,7,8,9-Hexahydro-1H-cyclopenta[4,5]thieno[2,3-b]quinolin-10-amine] | 14.88±2.64 | 21.29 ± 4.69% | 65.36 ± 2.91a % | 24.83 ± 0.47% | 41.63 ± 2.78 % | 38.54 ± 4.26% | 36.09 ± 2.79 % | inhibitory effect | 19.47 ± 1.38 % | 37.90 ± 4.12 % | – | 201.51 ± 6.61 | 1.92 ± 0.03 | 1.54 ± 0.10 | 1.51 ± 0.14 | 1.40 ± 0.02 | 158.02 ± 2.51 | 19.70±0.66 | significantly reduced |
| Nc1c2c(nc3sc4c(c13)CCC4)CCCCC2 [BN-16, 1,2,3,6,7,8,9,10-Octahydrocyclohepta[b]cyclopenta[4,5]thieno[3,2-e]pyridine-11-amine] | 15.70±1.28 | 18.30 ± 3.25% | 61.80 ± 1.18a % | 30.90 ± 4.32% | 40.09 ± 4.24 % | 41.00 ± 3.86% | 31.85 ± 2.09 % | inhibitory effect | 23.95 ± 4.49 % | 39.11 ± 1.68 % | 37.53 ± 09.04 % | 206.38 ± 4.76 | 1.81 ± 0.11 | 1.51 ± 0.10 | 1.64 ± 0.13 | 1.59 ± 0.09 | 157.85 ± 2.08 | 17.3±1.63 | significantly reduced |
| COc1ccc2c(c1)c(CC(=O)O)c(C)n2C(=O)c1ccc(Cl)cc1 [Indomethacin, reference compound] | 19.70±2.23 | – | – | – | – | – | – | – | 37.25 ± 2.36 % | 45.43 ± 3.56 % | 45.80 ± 6.09% | 182.68 ± 4.91 | 1.49 ± 0.06 | 1.35 ± 0.09 | 1.42 ± 0.02 | 1.43 ± 0.08 | 157.85 ± 2.08 | 20.67±0.59 | – |
